Results: patent US20200237766A1, “PKM2 ACTIVATORS IN COMBINATION WITH REACTIVE OXYGEN SPECIES FOR TREATMENT OF CANCER” (TOLERO PHARMACEUTICALS, INC., priority 2017, published 2020)
Read-outs that look alike come from different tables or passages of the source.

Target: PKM2 (Homo sapiens, UniProt P14618)
Assay: PKM2 activation biochemical assay (AC50 / max. response vs fructose 1,6-bisphosphate)
Conditions: for Max. Resp. (%): % maximum response in a biochemical assay as compared with Fructose 1,6-bisphosphate
[1] = biochemical assay, read-out: PKM2 AC50

Sequence of PKM2 (P14618 whole entry): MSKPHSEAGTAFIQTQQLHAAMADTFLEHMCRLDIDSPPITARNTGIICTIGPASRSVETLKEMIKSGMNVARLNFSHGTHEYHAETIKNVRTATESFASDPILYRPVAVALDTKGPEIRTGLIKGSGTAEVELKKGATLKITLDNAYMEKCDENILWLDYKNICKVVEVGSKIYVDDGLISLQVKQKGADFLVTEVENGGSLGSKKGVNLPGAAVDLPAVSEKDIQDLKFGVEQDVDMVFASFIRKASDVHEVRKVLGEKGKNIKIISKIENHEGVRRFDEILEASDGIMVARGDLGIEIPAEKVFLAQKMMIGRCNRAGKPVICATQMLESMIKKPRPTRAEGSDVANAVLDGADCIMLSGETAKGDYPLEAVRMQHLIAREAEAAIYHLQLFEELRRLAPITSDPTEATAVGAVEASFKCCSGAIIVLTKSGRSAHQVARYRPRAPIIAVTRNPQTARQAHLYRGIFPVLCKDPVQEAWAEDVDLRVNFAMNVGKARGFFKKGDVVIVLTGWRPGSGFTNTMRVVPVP

SMILES: O=C(c1cc(C(F)(F)F)n[nH]1)N(CCC1CCS(=O)(=O)CC1)Cc1c(F)cccc1F [Compound 85]
- Max. Resp. (%): 100%
- AC50 [1]: 64 nM

SMILES: CCNCCN(Cc1ccccc1F)C(=O)c1cc(C(F)(F)F)n[nH]1 [Compound 155]
- Max. Resp. (%): 100%
- AC50 [1]: 2150 nM

SMILES: CCN(CC)CCN(Cc1ccccc1Cl)C(=O)c1cc(C(F)(F)F)n[nH]1 [Compound 159]
- Max. Resp. (%): 100%
- AC50 [1]: 73 nM

SMILES: NCc1ccccc1CN(CC1CCC1)C(=O)c1cc(C(F)(F)F)n[nH]1 [Compound 145]
- AC50 [1]: 25500 nM

SMILES: CC[C@](C)(N)C(=O)Oc1ccc(CN(CC2CCC2)C(=O)c2cc(Cl)n[nH]2)c(F)c1 [Compound 115]
- Max. Resp. (%): 104%
- AC50 [1]: 98 nM

SMILES: O=C(c1cc(C(F)(F)F)n[nH]1)N(Cc1ccc(O)cc1F)CC1COC1 [Compound 15]
- Max. Resp. (%): 102%
- AC50 [1]: 150 nM

SMILES: O=C(c1cc(C(F)(F)F)n[nH]1)N(Cc1ccc(O)cc1F)CC1CCC1 [Compound 244]
- Max. Resp. (%): 107%
- AC50 [1]: 62 nM

SMILES: O=C(c1cc(C(F)(F)F)n[nH]1)N(CCN1CCCCC1)Cc1c(F)cccc1Cl [Compound 179]
- Max. Resp. (%): 100%
- AC50 [1]: 133 nM

SMILES: O=C(c1cc(C(F)(F)F)n[nH]1)N(CCC1CCCCO1)Cc1ccccc1Cl (centres unmarked) [Compound 44]
- Max. Resp. (%): 32%
- AC50 [1]: 50000 nM

SMILES: CO[C@H]1CC[C@H](N(Cc2cccc(F)c2)C(=O)c2cc(C(F)(F)F)n[nH]2)CC1 [Compound 48]
- Max. Resp. (%): 80%
- AC50 [1]: 8580 nM

SMILES: O=C(c1cc(C(F)(F)F)n[nH]1)N(Cc1ccc(O)cc1Cl)CC1CCC1 [Compound 124]
- Max. Resp. (%): 100%
- AC50 [1]: 21 nM

SMILES: Cc1ccc2nc(Cn3c(Cc4ccccc4)nc4ccccc43)cc(=O)n2c1 [PP1]
- Max. Resp. (%): 148%
- AC50 [1]: 3500 nM

SMILES: O=C(c1cc(C(F)(F)F)n[nH]1)N(CCN1CCCCC1)Cc1c(Cl)cccc1Cl [Compound 180]
- Max. Resp. (%): 100%
- AC50 [1]: 154 nM

SMILES: Cc1cccn2c(=O)cc(Cn3cnc4ccccc43)nc12 [PP13]
- AC50 [1]: 145 nM

SMILES: CO[C@H]1CC[C@H](N(Cc2cc(F)ccc2F)C(=O)c2cc(C(F)(F)F)n[nH]2)CC1 [Compound 50]
- AC50: 1670 nM
- Max. Resp. (%): 90%

SMILES: O=C(c1cc(C(F)(F)F)n[nH]1)N(CCC1CCS(=O)(=O)C1)Cc1cccc(F)c1 (centres unmarked) [Compound 67]
- AC50: 1630 nM
- Max. Resp. (%): 95%

SMILES: O=C(c1cc(C(F)(F)F)n[nH]1)N(Cc1cccc(Cl)c1O)CC1CCC1 [Compound 141]
- Max. Resp. (%): 100%
- AC50 [1]: 6500 nM

SMILES: O=C(c1cc(C(F)(F)F)n[nH]1)N(CCN1CCCC1)Cc1c(Cl)cccc1Cl [Compound 178]
- Max. Resp. (%): 100%
- AC50 [1]: 126 nM

SMILES: O=C(c1cc(C(F)(F)F)n[nH]1)N(CCN1CCCCCC1)Cc1cccc([N+](=O)[O-])c1Cl [Compound 210]
- AC50: 133 nM
- Max. Resp. (%): 100%

SMILES: COCCN(Cc1ccc(O)cc1F)C(=O)c1cc(C(F)(F)F)n[nH]1 [Compound 142]
- Max. Resp. (%): 100%
- AC50 [1]: 1190 nM

SMILES: O=C(c1cc(C2CC2)n[nH]1)N(CCC(F)(F)F)Cc1ccc(O)cc1F [Compound 129]
- AC50: 10500 nM

SMILES: Cc1sc2nc(Cn3cnc4ccccc43)cc(=O)n2c1C [PP14]
- AC50 [1]: 86 nM

SMILES: NC1CC(N(Cc2ccccc2Cl)C(=O)c2cc(C(F)(F)F)n[nH]2)C1 (centres unmarked) [Compound 226]
- Max. Resp. (%): 80%
- AC50 [1]: 12000 nM

SMILES: O=C(CCSC(=S)NCc1cccnc1)c1ccccc1Cl [PMA19]
- Max. Resp. (%): 63%
- AC50 [1]: 5610 nM

SMILES: CCCCCN(Cc1ccccc1F)C(=O)c1cc(C(F)(F)F)n[nH]1 [Compound 17]
- Max. Resp. (%): 83%
- AC50 [1]: 138 nM

SMILES: O=C(c1cc(C(F)(F)F)n[nH]1)N(CCN1CCCCCC1)Cc1c(Cl)cccc1[N+](=O)[O-] [Compound 211]
- Max. Resp. (%): 100%
- AC50 [1]: 123 nM

SMILES: CC(CN(Cc1c(N)cccc1Cl)C(=O)c1cc(C(F)(F)F)n[nH]1)N1CCCC1 (centres unmarked) [Compound 221]
- Max. Resp. (%): 60%
- AC50 [1]: 223 nM

SMILES: O=C(c1cc(C(F)(F)F)n[nH]1)N(CCN1CCS(=O)(=O)CC1)Cc1c(F)cccc1F [Compound 109]
- Max. Resp. (%): 94%
- AC50 [1]: 4200 nM

SMILES: O=C(c1cc(C(F)(F)F)n[nH]1)N(CCC1CCSCC1)Cc1c(F)cccc1F [Compound 84]
- Max. Resp. (%): 73%
- AC50 [1]: 697 nM

SMILES: O=C(c1cc(C(F)(F)F)n[nH]1)N(CCN1CCCCCC1)Cc1ccccc1Cl [Compound 189]
- Max. Resp. (%): 100%
- AC50 [1]: 24 nM

SMILES: CO[C@H]1CC[C@H](N(Cc2c(F)cccc2F)C(=O)c2cc(C(F)(F)F)n[nH]2)CC1 [Compound 49]
- Max. Resp. (%): 122%
- AC50 [1]: 914 nM

SMILES: O=C(c1cc(Br)n[nH]1)N(Cc1cccc2[nH]cnc12)CC1CCC1 [Compound 120]
- Max. Resp. (%): 100%

SMILES: CC(c1ccccc1)N(CC1CCC1)C(=O)c1cc(N)n[nH]1 (centres unmarked) [Compound 4]
- Max. Resp. (%): 52%
- AC50 [1]: 1480 nM

SMILES: O=C(c1cc(C(F)(F)F)n[nH]1)N(CCN1CCCCCC1)Cc1ccc(O)cc1Cl [Compound 194]
- Max. Resp. (%): 100%
- AC50 [1]: 43 nM

SMILES: Nc1ccc(CN(CCN2CCCCCC2)C(=O)c2cc(C(F)(F)F)n[nH]2)c(Cl)c1 [Compound 207]
- Max. Resp. (%): 75%
- AC50 [1]: 170 nM

SMILES: O=C(c1cc(C(F)(F)F)n[nH]1)N(CCC1CCSCC1)Cc1ccc(O)cc1F [Compound 86]
- Max. Resp. (%): 98%
- AC50 [1]: 93 nM

SMILES: CC1CCCN(CCN(Cc2ccccc2Cl)C(=O)c2cc(C(F)(F)F)n[nH]2)C1 (centres unmarked) [Compound 191]
- Max. Resp. (%): 100%
- AC50 [1]: 29 nM

SMILES: O=C(c1cc(C(F)(F)F)n[nH]1)N(CCC1CCOC1)Cc1ccccc1Cl (centres unmarked) [Compound 43]
- AC50: 1330 nM
- Max. Resp. (%): 110%

SMILES: Nc1cccc(CN(CCN2CCCCCC2)C(=O)c2cc(C(F)(F)F)n[nH]2)c1F [Compound 216]
- Max. Resp. (%): 100%
- AC50 [1]: 117 nM

SMILES: CN1CCN(CCN(Cc2ccccc2F)C(=O)c2cc(C(F)(F)F)n[nH]2)CC1 [Compound 103]
- AC50: 37000 nM
- Max. Resp. (%): 42%

SMILES: CCN(CC)CCN(Cc1c(Cl)cccc1Cl)C(=O)c1cc(C(F)(F)F)n[nH]1 [Compound 169]
- Max. Resp. (%): 100%
- AC50 [1]: 66 nM

SMILES: O=C(c1cc(C(F)(F)F)n[nH]1)N(CCC1CC[S+]([O-])CC1)Cc1ccccc1Cl (centres unmarked) [Compound 74]
- Max. Resp. (%): 95%
- AC50 [1]: 640 nM

SMILES: Nc1cccc(Cl)c1CN(CC1CCN1)C(=O)c1cc(C(F)(F)F)n[nH]1 (centres unmarked) [Compound 233]
- Max. Resp. (%): 75%
- AC50 [1]: 930 nM

SMILES: O=C(c1cc(C(F)(F)F)n[nH]1)N(CCC1CCS(=O)(=O)C1)Cc1cncs1 (centres unmarked) [Compound 93]
- AC50: 49000 nM
- Max. Resp. (%): 26%

SMILES: CCc1ccc(C)n2c(=O)cc(Cn3cnc4ccccc43)nc12 [PP11]
- AC50 [1]: 120 nM

SMILES: CO[C@H]1CC[C@H](N(Cc2cc(F)cc(F)c2)C(=O)c2cc(C(F)(F)F)n[nH]2)CC1 [Compound 51]
- Max. Resp. (%): 31%
- AC50 [1]: 50400 nM

SMILES: O=C(c1cc(C(F)(F)F)n[nH]1)N(CCC1CCS(=O)(=O)C1)Cc1cccnc1 (centres unmarked) [Compound 90]
- Max. Resp. (%): 24%
- AC50 [1]: 52000 nM

SMILES: O=C(c1cc(C(F)(F)F)n[nH]1)N(CCO)Cc1ccc(O)cc1F [Compound 137]
- Max. Resp. (%): 70%
- AC50 [1]: 6200 nM

SMILES: O=C(c1cc(C(F)(F)F)n[nH]1)N(Cc1cccc(F)c1O)CC1CCC1 [Compound 136]
- Max. Resp. (%): 100%
- AC50 [1]: 380 nM

SMILES: CN1CCC(CN(Cc2ccccc2F)C(=O)c2cc(C(F)(F)F)n[nH]2)CC1 [Compound 100]
- Max. Resp. (%): 29%
- AC50 [1]: 101000 nM

SMILES: O=C(c1cc(Br)n[nH]1)N(CCC1CCSCC1)Cc1ccccc1F [Compound 82]
- Max. Resp. (%): 74%
- AC50 [1]: 1370 nM

SMILES: CCN(CC)CCN(Cc1c(F)cccc1Cl)C(=O)c1cc(C(F)(F)F)n[nH]1 [Compound 172]
- Max. Resp. (%): 100%
- AC50 [1]: 94 nM

SMILES: O=C(c1cc(C(F)(F)F)n[nH]1)N(CCC1CCS(=O)(=O)CC1)Cc1ccccc1Cl [Compound 75]
- Max. Resp. (%): 102%
- AC50 [1]: 188 nM

SMILES: O=C(c1cc(C(F)(F)F)n[nH]1)N(CCN1CCCCCC1)Cc1ccc(O)cc1F [Compound 195]
- AC50: 95 nM
- Max. Resp. (%): 100%

SMILES: Cn1cc(C(=O)c2cccc(Cl)c2Cl)cc1C(=O)NCCNC(=O)c1cc(C(=O)c2cccc(Cl)c2Cl)cn1C [CA5]
- AC50 [1]: 14 nM

SMILES: CC(C)O[C@H]1CC[C@H](N(Cc2ccccc2Cl)C(=O)c2cc(C(F)(F)F)n[nH]2)CC1 [Compound 53]
- Max. Resp. (%): 63%
- AC50 [1]: 2290 nM

SMILES: Nc1cccc(Cl)c1CN(CCN1CC[C@H](F)C1)C(=O)c1cc(C(F)(F)F)n[nH]1 [Compound 241]
- AC50: 125 nM
- Max. Resp. (%): 100%

SMILES: O=C(c1cc(C(F)(F)F)n[nH]1)N(Cc1ccc(O)cc1F)C1CCOCC1 [Compound 21]
- AC50 [1]: > 10000 nM

SMILES: CNCc1c[nH]c2cccc(CN(CC3CCC3)C(=O)c3cc(Br)n[nH]3)c12 [Compound 121]
- AC50: 23000 nM

SMILES: CS(=O)(=O)N1CCC(CCN(Cc2ccccc2F)C(=O)c2cc(C(F)(F)F)n[nH]2)CC1 [Compound 99]
- Max. Resp. (%): 100%
- AC50 [1]: 110 nM

SMILES: O=C(c1cc(C2CC2)n[nH]1)N(Cc1ccc(O)cc1F)CC1CCC1 [Compound 246]
- Max. Resp. (%): 85%

SMILES: O=C(c1cc(C(F)(F)F)n[nH]1)N(CCC1CCS(=O)(=O)C1)Cc1ccccc1Cl (centres unmarked) [Compound 62]
- AC50: 273 nM
- Max. Resp. (%): 105%

SMILES: O=C(c1cc(C(F)(F)F)n[nH]1)N(CCN1CCC(F)(F)CC1)Cc1ccccc1Cl [Compound 205]
- Max. Resp. (%): 100%
- AC50 [1]: 2050 nM

SMILES: O=C(c1cc(C(F)(F)F)n[nH]1)N(CCC1CCOC1)Cc1c(F)cccc1F (centres unmarked) [Compound 40]
- AC50: 1170 nM
- Max. Resp. (%): 114%

SMILES: COCCCN(Cc1ccccc1Cl)C(=O)c1cc(C(F)(F)F)n[nH]1 [Compound 31]
- Max. Resp. (%): 82%
- AC50 [1]: 9590 nM

SMILES: CCN(CC)CCN(Cc1cc(N)ccc1Cl)C(=O)c1cc(C(F)(F)F)n[nH]1 [Compound 183]
- Max. Resp. (%): 100%
- AC50 [1]: 185 nM

SMILES: Cc1ccn2c(=O)cc(Cn3cnc4ccccc43)nc2c1 [PP9]
- AC50 [1]: 216 nM

SMILES: CC1CC(C)CN(CCN(Cc2ccccc2Cl)C(=O)c2cc(C(F)(F)F)n[nH]2)C1 (centres unmarked) [Compound 188]
- Max. Resp. (%): 60%
- AC50 [1]: 46 nM
